For assay [1], the system named is test subject. The assay can be described thus: Bicycle ergometer test at 100 W: antagonism between inactive (1st dosage) and active (2nd dosage) substances (Example 1b). Format: in vivo, human. The protocol:
13 to Mar. 6, 1999, with a subject in good physical condition under standard conditions. The subject was required each morning in the fasting state to perform successively (without interruption) at mechanical power output of 100 W, 125 W and 150 W, each lasting 10 minutes (total test duration 30 minutes each time). […] The heat production induced by mechanical exertion was calculated from the changes in the heart rate. An alternative possibility is also to determine it on the basis of the increase in humidity caused by the perspiration (the tests are carried out in a closed room) or reduction in weight (1 g of water=2.26 kJ). […] The values indicated in table la for the “average heart rate” are in each case averages over the 30-minute duration of the test; relative values for the oxygen consumption were established on the basis of the heart rates in a known manner, and the relative values indicated in Table 1a are based on the oxygen consumption on the first day (=100%); the values listed in the column “heat production” in Table 1a give the percentage deviation of the heat production, established on the basis of the perspiration, from the average from all the tests.
It is known that the oxygen uptake can be determined by measuring the heart rate as a function of the mechanical exertion. This ergometric method is based on establishing the oxygen transport volume through the action of the heart. Since the stroke volume is essentially constant irrespective of the intensity of the mechanical work, and the increased oxygen demand caused by the increase in work results in an increase in the heart rate, the quantity of the transported oxygen can be established by determining the additional heartbeats caused by the work. A 3-stage ergometer as recommended by the World Health Organization (WHO) is used in physiology research institutes and fitness clubs around the world.

Assay [2] relates to test subject. The assay is described as follows: Bicycle ergometer test at 100 W with gelatin products (Example 7). In kind it is in vivo, human. On the procedure:
In tests analogous to Example 1, the tests indicated in Table 7 were carried out with gelatin products which were produced in analogy to Examples 3-5. After a warm-up period of 5 minutes in each case firstly the heartbeats were recorded at a mechanical power output of 100 W during a 10-minute control test, then the 1st dosage was administered and immediately thereafter the heart rate was measured in a 10-minute test period with a power output of 100 W. In the case of a 2nd dosage, this further administration and a second 10-minute test period take place with a power output of 100 W immediately following the first test period.

A short description of assay [3]: Oxygen-sparing action during physical work, general findings in the description. In kind it is in vivo. To be noted: result in words; even occasionally increased.

For `CN(C)CCCN1c2ccccc2CCc2ccccc21` [imipramine], the “Average heart rate after 1st dosage” value in assay [1] (1st dosage 10 mg in 20 ml of water, 10-minute test at 100 W) is 109.5 per minute. Further, the change in vivo at 10 mg in assay [1] (Homo sapiens, 1st dosage 10 mg, 100 W, read-out: Change in the oxygen consumption after 1st dosage) came out at 23%. The “Average heart rate after 1st dos.” value in assay [2] (1st dosage 10 mg, 100 W) stood at 100.2 per minute. The “Average heart rate before” value in assay [2] (10-minute control test at 100 W before the 1st dosage) stood at 87.7 per minute. Also, the “Oxygen demand after administration” value in assay [3] was “not reduced”.
